Data reported in publication PMC10352165, “Miniaturized method for the quantification of persistent organic pollutants and their metabolites in HepG2 cells: assessment of their biotransformation” (Analytical and Bioanalytical Chemistry, 2023).
In brackets after ≈: the same amount, converted by molar mass. Like-named read-outs stand apart in the source and are kept apart here.

Legend:
MTT cell viability assay = format: cell-based; conditions: human; HepG2, 48 h of exposure, MTT, polynomial fitting; read-out: LC50 (50% viability)
Procedure: (§1) Cell viability was determined by MTT assay. First, 10,000 cells/well were cultured in 96-well plates for 24 h at 37 °C and 5% CO2. After that time, the culture medium was replaced with a culture medium containing different concentrations (0–70 mg·L^−1) of PHE and BDE-47 for 48 h of exposure under the same incubated conditions. After that, 20 μL MTT solution (5 mg·mL^−1 diluted in PBS) was added and incubated for the following 4 h. Viable cellular metabolic reduction of MTT produced formazan crystals, which were dissolved in 100 μL sterile DMSO and quantified with absorbance measurement at 595 nm in a Multiskan Sky High ([…] Thermo Fisher). The cell viability was estimated by using Eq. (1). 1 %Viability=Aexp-Ablank/Acontrol-Ablank∙100 where Acontrol, Aexp, and Ablank are the mean absorbance value (6 replicates) of the control group (cells without pollutant), experimental group, and blank group (only cell culture medium), respectively. Five independent assays were carried out with the same conditions. The results have been subsequently used for the design of the biotransformation experiment.
(§2) Cell viability of each concentration was estimated by using Eq. (1) according to the absorbance values obtained in the MTT assay. The dose–response values were fitted by Origin Pro 2021 with a polynomial equation (shown in Fig. 3) from which the LC value was estimated. LC50 (50% viability) and LC30 (70% viability) were estimated by the polynomial fitting of the mean cell viability data obtained from three independent experiments. Cell viability in HepG2 decreased by 30% at 22 mg·L^−1 PHE and 38 mg·L^−1 BDE-47 and up to 50% at 38 mg·L^−1 PHE and 46 mg·L^−1 BDE-47. […] The calculated LC30 values have been subsequently used for the design of the biotransformation experiments.

HepG2 cells [1] = assay: MTT cell viability assay; format: cell-based; conditions: HepG2, 48 h of exposure, MTT, polynomial fitting
Procedure: as §1, §2

HepG2 cells [2] = assay: Plastic and glass plate exposure test (loss and cell uptake of compound); format: in vitro ADME
Procedure: Exposure of HepG2 cells (3 replicates) was performed by initially seeding approximately 2·10^6 cells in glass P100 plates and being incubated for 24 h at 37 °C (5% CO2) with 10 mL of DMEM supplemented with 10% FBS. […] The nominal exposure concentration was estimated by the previous MTT viability study, in which, more than 70% of the cells were alive at the end of the test (lethal concentration 30, LC30) to ensure good metabolizing capacity. Part of the contaminated medium was stored to determine the concentration at time 0 of exposure (“t = 0 h”). In addition, to consider possible analyte loss, a plate of control cells without pollutant (“blank”) and a plate with contaminated medium without cells (“no cells”) were incubated under the same conditions. […] Since the determination of PHE is carried out by LC-FL and its metabolites by GC–MS, the cell pellet was divided in half for each analysis. For this purpose, the adherent cells were lifted in suspension by trypsinization, and the total volume of the homogenous cell suspension was divided in half. Then, the resulting cell pellet from each fraction was collected by centrifuging at 1500 rpm for 5 min and removing the medium. However, for the determination of BDE-47 and its metabolites, the complete pellet obtained is analyzed because a simultaneous extraction is performed for both analyses. The obtained pellet was dried under a gentle stream of nitrogen, weighed on a precision analytical balance (± 0.00001 g), and stored at − 4 °C until analysis. Three independent assays were carried out with the same conditions, each with 3 replicates (plates) of the same concentration.
A major problem in in vitro cell assays is the loss of compound during the exposure process to estimate the effective concentration available to the cell and to correctly assess the toxicity and metabolization kinetics of POPs, as most of them are hydrophobic and semi-volatile. Firstly, when concentration was determined in the exposure and no cells medium samples at the end of the test (48 h) using plastic Petri dishes, a loss of 89% and 84% compared to the t = 0 h sample was found in the cells and no cells sample respectively (Table 1). This loss, similar to that found in previous studies, is mainly explained by absorption into polystyrene, the main component of in vitro culture plates or evaporation processes because these compounds have a Henry law constant (KH) between 1 and 10 Pa·m^3·mol^−1 [11] (7.90 Pa·m^3·mol^−1 for PHE at 35 °C [13] and 3.78 Pa·m^3·mol^−1 for BDE-47 at 40 °C [40]). The remaining concentration in the medium that had not been lost by evaporation or absorbed into the cells was retained in the protein serum. […] A fraction dissolved in the medium accessible to the cells of 3.5% for anthracene (log Kow 4.5) was obtained introducing the conditions of this work into the chemical partitioning model developed by Fischer et al.. […] Therefore, it should be considered to avoid the use of plastic in tests that requires P100 plates with a very high surface area/volume ratio of the medium when studying neutral chemicals with a log Kow > 3, as is the case of PHE (log Kow 4.46 [39]) and BDE-47 (log Kow 6.81 [26]).
Using glass plates, a loss of 47% and 26% for cells and no cells samples, respectively, was found at the end of the assay (48 h) (Table 1), and the concentration absorbed by the cells increased from 4 ± 1 to 18 ± 3%. For BDE-47, a loss of only 14% because of volatilization and an absorbed concentration of 24 ± 2% resulted using a glass plate, as BDE-47 is less volatile and more hydrophobic than PHE, favoring cell uptake. Birch et al. calculated a cell-free fraction of 13% for PHE in HepG2 cells with 10% of FBS in the medium considering the evaporation losses using glass vials. […]

[3] = at 40 °C; cited from earlier work
[4] = cited from earlier work
HepG2 = conditions: HepG2, BDE-47, cited from earlier work
HepG2 cells [5] = assay: Biotransformation experiment in HepG2 (concentration in cells and exposure medium); conditions: for Concentration in medium, t = 0 h: contaminated medium at time 0, 20 mg·L^−1 BDE-47 nominal; for Concentration in medium, no cells: contaminated medium without cells, 20 mg·L^−1 BDE-47, 48 h; for Biotransformation ratio between metabolites and PHE, cells / Biotransformation ratio between metabolites and PHE, medium: HepG2, 15 mg·L^−1 PHE
[6] = HepG2 exposed to 20 mg·L^−1 BDE-47, 48 h, parent compound
[7] = HepG2 exposed to 20 mg·L^−1 BDE-47, 48 h, metabolites
[8] = HepG2 exposed to 15 mg·L^−1 PHE, 48 h, metabolites

Question: For Brc1ccc(Oc2ccc(Br)cc2Br)c(Br)c1 [BDE-47, 2,2′,4,4′-tetrabromodiphenyl ether], which CC50 at 48 h (MTT cell viability assay) is on record?
Answer: Its CC50 at 48 h is 46 µg/mL (≈ 94.7 µM).

Question: What about the “LC30 (70% viability; cell viability decreased by 30%)” value (HepG2 cells [1]) of the same molecule?
Answer: Its value is 38 µg/mL (≈ 78.2 µM).

Question: And the “loss because of volatilization” value (HepG2 cells [2]; glass plate)?
Answer: The value was 14%.

Question: And the “concentration absorbed by the cells” value (HepG2 cells [2]; glass plates, 48 h)?
Answer: The value was 24 ± 2%.

Question: What about the “Henry law constant (KH)” value [3] of the same molecule?
Answer: The value was 3.78 Pa·m^3·mol^−1.

Question: And the “log Kow” value [4]?
Answer: Its value is 6.81.

Question: What about the LC50 (HepG2) of the same molecule?
Answer: The LC50 was 48.6 µg/mL (≈ 100 µM).

Question: And the CC50 (HepG2; read-out: LC50 (the source's name))?
Answer: The CC50 was 100 µM.

Question: What about the “Concentration in cells, samples” value (HepG2 cells [5]; [6]) of the same molecule?
Answer: The value was 737000 ± 120000 ng/g.

Question: What about the “Concentration in medium, samples” value (HepG2 cells [5]; [6]) of the same molecule?
Answer: The value was 13000 ± 2000 ng/mL.

Question: What about the “Concentration in medium, t = 0 h” value (HepG2 cells [5]) of the same molecule?
Answer: The value was 16000 ± 1000 ng/mL.

Question: What about the “Concentration in medium, no cells” value (HepG2 cells [5]) of the same molecule?
Answer: Its value is 14000 ± 3000 ng/mL.

Question: Which “Concentration in cells, samples” value (HepG2 cells [5]; [7]) does the source give for Oc1cc(Br)ccc1Oc1ccc(Br)cc1Br [2’-OH-BDE-28] here?
Answer: Its value is 0.11 ± 0.09 ng/g.

Question: What about the “Concentration in medium, samples” value (HepG2 cells [5]; [7]) of the same molecule?
Answer: Its value is 3.2 ± 0.2 ng/mL.

Question: Which “Concentration in cells, samples” value (HepG2 cells [5]; [7]) does the source give for Brc1ccc(Oc2ccc(Br)cc2Br)cc1 [BDE-28] here?
Answer: The value was 18 ± 5 ng/g.

Question: And the “Concentration in medium, samples” value (HepG2 cells [5]; [7])?
Answer: Its value is 577 ± 92 ng/mL.

Question: What about the “Concentration in medium, t = 0 h” value (HepG2 cells [5]; metabolites) of the same molecule?
Answer: Its value is 662 ± 18 ng/mL.

Question: And the “Concentration in medium, no cells” value (HepG2 cells [5]; metabolites)?
Answer: The value was 651 ± 36 ng/mL.

Question: Which “Biotransformation ratio between metabolites and PHE, cells” value (HepG2 cells [5]; 48 h) does the source give for Oc1cccc2c1ccc1ccccc12 [1-OH-PHE] here?
Answer: The value was 0.01.

Question: And the “Biotransformation ratio between metabolites and PHE, medium” value (HepG2 cells [5]; 48 h)?
Answer: Its value is 0.22.

Question: And the “Concentration in cells, samples (n = 3)” value (HepG2 cells [5]; [8])?
Answer: The value was 72 ± 27 ng/g.

Question: And the “Concentration in medium, samples” value (HepG2 cells [5]; [8])?
Answer: Its value is 7.7 ± 0.9 ng/mL.

Question: What does the source list for Oc1cc(Oc2ccc(Br)cc2Br)c(Br)cc1Br [5-OH-BDE-47]?
Answer: Biotransformation ratio between metabolites and BDE-47, cells (HepG2 cells [5]; HepG2, 20 mg·L^−1 BDE-47, 48 h): 0.01; Biotransformation ratio between metabolites and BDE-47, medium (HepG2 cells [5]; HepG2, 20 mg·L^−1 BDE-47, 48 h): 0.06; Concentration in cells, samples (HepG2 cells [5]; [7]): 0.27 ± 0.08 ng/g; Concentration in medium, samples (HepG2 cells [5]; [7]): 6.2 ± 0.5 ng/mL

Question: For c1ccc2cc3ccccc3cc2c1 [anthracene, reference compound], which “log Kow” value ([4]; value used with the partitioning model) is on record?
Answer: Its value is 4.5.

Question: Which results are given for Oc1ccc2ccc3ccccc3c2c1 [3-OH-PHE]?
Answer: Biotransformation ratio between metabolites and PHE, cells (HepG2 cells [5]; 48 h): 0.04; Biotransformation ratio between metabolites and PHE, medium (HepG2 cells [5]; 48 h): 0.13; Concentration in cells, samples (n = 3) (HepG2 cells [5]; [8]): 195 ± 33 ng/g; Concentration in medium, samples (HepG2 cells [5]; [8]): 4.0 ± 0.7 ng/mL
